Several values for one entry are separate records, joined by “and”; a condition that tells them apart may be missing. Equal values may be shown once.
Experiments:
KRAS 35G>A mutant G12D = assay: Indel frequencies at the endogenous target sequences (T7E1 / deep sequencing) after ADGN/Cas9 mRNA/gRNA transfection; assay type: cell-based, human; conditions: for indel frequencies: deep sequencing, 72 hours after transfection, Cas9 mRNA 0.1 μg, gRNA 0.2 μg
Experimental: Complex formation with mRNA:gRNA: ADGN peptide/mRNA/gRNA particles were prepared at a 20:1:1 molar ratio. ADGN/Cas9mRNA/sgRNA complexes were prepared at a 20/1/1 molar ratio with 0.5 μg mRNA: 1.5 μg sgRNA and 5% Glucose or DMEM (example for 96 well plates). […] Premixed Cas9 mRNA/gRNA were prepared in sterile water at room temperature in a glass vial (1-4 ml). ADGN-peptide solution was added dropwise (1 drop/sec) under magnetic agitation at 400 rpm to obtain a 1:2 ratio, and incubated for 30 min at room temperature or 37° C. Just before transfection, 150 μl Glucose or DMEM was added and the solution was mixed under magnetic agitation at 400 rpm for 1 minute. Then the solution was incubated for 5 min at 37° C. Then the complexes was ready for cell transfection or IV administration. Prior to IV administration, complexes were diluted in sucrose 5% solution.
Transfection protocol. The following protocols are reported for 24/48/96 well plate format transfection. Cells should be trypsinized and seeded a day prior transfection Cells were cultured in Dulbecco's Modified Eagle's Medium (DMEM), supplemented with 2 mM glutamine, 1% antibiotics (streptomycin 10,000 μg/mL, penicillin, 10,000 IU/mL) and 10% (w/v) foetal calf serum (FCS), at 37° C. in a humidified atmosphere containing 5% CO2. 96 well plates seeded with 50,000 cells, the day prior transfection, grown to 60-80% confluence and set up to be at around 70% confluence at the day of transfection. Before transfection, cells are washed twice with DMEM (without FBS and pen/strep) (100 μl/well). Cells were then overlaid with 25 μl of complex solution, mixed gently and incubated for 10 min at 37° C.+5% CO2. 50 μl of fresh DMEM (without FBS and Antibiotics) was added and cells were incubated for 2 h at 37° C.+5% CO2 (time of exposure can be adjusted based on sensitivity of the cells). 250 μL of DMEM (containing 10% FCS and 1% antibiotics) were then added without removing the overlay of ADGN peptide/mRNA complexes. Cells were returned to the incubator (37° C., 5% CO2) and analyzed 48 hours to 72 hours post transfection.
Nine different gRNAs targeting KRAS 35G>A mutant G12D (gRNA35A1, gRNA35A2, gRNA35A3, gRNA35A4, gRNA35A5, gRNA35A6; gRNA35A7, gRNA35A8, gRNA35A9) were evaluated on LS513, Panc1, PK-45H, and PK1 cancer cells harboring G12D KRAS mutation. Cas9 mRNA (0.1 μg) and gRNA (0.2 μg) were associated with ADGN-peptide at molar ratio 20/1 (peptide/nucleic acid). LS513, Panc1, PK-45H, PK1, HS-68 and HT-29 cells were cultured in 48 well plate format and treated with free mRNACas9-gRNA, or ADGN/mRNACas9:gRNA complex. Indel frequencies at the endogenous target sequences was evaluated 72 hours after transfection by either T7E1 method or deep sequencing. Cell proliferation was analyzed over a period of 5 days using CellTiter Glow kits on GlowMax (Promega).
In order to confirm the specificity of sgRNAs targeting G12V, G12C or G12D KRAS mutation, gRNA35T3 targeting G12V, gRNA34T6 targeting G12C, and gRNA35A5 targeting G12D were evaluated on a large panel of cancer cells harboring different KRAS mutations including SW403, SW480, PANC1, PK-45H, PK-1, MIA-PACA, H23, H358, HT-29, HS-68 and LS513. Cas9 mRNA (0.2 μg) and gRNA (0.4 μg) were associated with ADGN peptide at molar ratio 20/1 (peptide/nucleic acid). Cells were cultured in 48 well plate format and treated with free mRNACas9-gRNA, or ADGN/mRNACas9:gRNA complex. Indel frequencies at the endogenous target sequences was evaluated 72 hours after transfection by either T7E1 method and cell proliferation was analyzed over a period of 5 days using CellTiter Glow kits on GlowMax (Promega).

wild type KRAS = assay: as above; assay type: cell-based, human; conditions: deep sequencing, 72 hours after transfection, Cas9 mRNA 0.1 μg, gRNA 0.2 μg
Procedure, shortened: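 Cas9 mRNA and gRNA complexed with ADGN peptide (20:1 molar ratio) and transfected into KRAS-mutant (G12V or G12D) and other cancer cell lines in 48-well format, 2 h exposure in serum-free DMEM. Indels at endogenous target sites measured 72 h post-transfection by T7E1 or deep sequencing.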

AGT TGG AGC TGA TGG CGT (guide AGTTGGAGCTGATGGCGT; chemistry not given here) [gRNA35A5, sgRNA target KRAS G12D mutation (35G>A); PAM AGG]
disruption of G12D mutant KRAS (FIG. 2A) (KRAS 35G>A mutant G12D; G12D cancer cells vs wild type KRAS cells (HT29 or HS-68)): induced efficient disruption of G12D mutant KRAS | indel frequency (KRAS 35G>A mutant G12D; KRAS G12D mutated cancer cells): > 70% | indel frequencies (KRAS 35G>A mutant G12D; LS513 cells): 35 ± 4% | indel frequencies (KRAS 35G>A mutant G12D; PANC1 cells): 67% and 67 ± 5% | indel frequency (KRAS 35G>A mutant G12D; PANC-1, PK-1, and PK-45H cells, T7E1, 72 hours, Cas9 mRNA 0.2 μg, gRNA 0.4 μg): > 75% | indel frequencies (KRAS 35G>A mutant G12D; PK1 cells): 78% and 78 ± 8% | indel frequencies (KRAS 35G>A mutant G12D; PK-45H cells): 75% and 75 ± 7% | indel frequencies (wild type KRAS; HS68 cells (WT KRAS)): 2 ± 1% | indel frequencies (wild type KRAS; HT-29 cells (WT KRAS)): 2 ± 1%

— patent US20230167437A1, “COMPOSITIONS FOR TREATING CANCER WITH KRAS MUTATIONS AND USES THEREOF” (Aadigen, LLC, priority 2020, published 2023)
